Biological target: T1, recombinant human ALK enzyme (ALK WT) (Homo sapiens, UniProt Q9UM73)
T1 construct: purchased Carna Biosciences 08-518
Assay: ALK WT cell free enzymatic assay (TR-FRET)
Format: biochemical
Conditions: 1 μM ATP; for IC50: 10 point dose response; for inhibition at 0.1 µM: compound at 100 nM; for inhibition at 0.1 µM / inhibition at 1 µM: 30 min pre-incubation; for inhibition at 1 µM: compound at 1 μM
Method in brief: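 Recombinant human ALK with 40 nM Ultra Light Poly GT, 1 μM ATP and Eu anti-phosphotyrosine antibody, 1% DMSO, pH 7.1 HEPES; 30 min enzyme-compound pre-incubation, then 30 min reaction. TR-FRET 665/615 ratio; percent inhibition at 100 nM and 1 μM, IC50 from 10-point sigmoidal fit.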

T1 sequence (Q9UM73 1058-1620 limits assumed): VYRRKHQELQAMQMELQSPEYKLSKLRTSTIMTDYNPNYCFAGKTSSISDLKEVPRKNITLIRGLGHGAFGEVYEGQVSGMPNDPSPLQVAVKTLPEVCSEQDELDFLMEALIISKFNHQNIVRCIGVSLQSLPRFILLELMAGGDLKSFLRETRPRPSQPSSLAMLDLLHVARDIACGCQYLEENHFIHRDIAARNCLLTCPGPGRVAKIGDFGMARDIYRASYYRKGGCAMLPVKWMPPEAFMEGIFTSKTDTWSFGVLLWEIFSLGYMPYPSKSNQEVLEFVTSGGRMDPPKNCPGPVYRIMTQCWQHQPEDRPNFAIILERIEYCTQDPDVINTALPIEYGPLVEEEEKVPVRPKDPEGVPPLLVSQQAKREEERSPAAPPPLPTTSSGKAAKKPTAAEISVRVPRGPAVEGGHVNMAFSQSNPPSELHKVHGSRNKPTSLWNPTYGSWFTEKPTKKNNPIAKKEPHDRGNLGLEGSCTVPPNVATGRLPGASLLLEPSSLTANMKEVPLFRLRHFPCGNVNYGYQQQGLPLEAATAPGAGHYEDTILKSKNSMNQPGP

IC50	inhibition at 0.1 µM	inhibition at 1 µM	SMILES
< 50 nM	80%	100%	CC(C)CN1CCN(c2ccc(-c3cnc4[nH]cc(-c5cnn(Cc6cccc(F)c6)c5)c4c3)cn2)CC1 [Example 152, 3-(1-(3-fluorobenzyl)-1H-pyrazol-4-yl)-5-(6-(4-isobutylpiperazin-1-yl)pyridin-3-yl)-1H-pyrrolo[2,3-b]pyridine]
< 50 nM	85%	94%	CS(=O)(=O)N1CCN(c2ccc(-c3cnc4[nH]cc(-c5cnn(Cc6cccc(F)c6)c5)c4c3)cn2)CC1 [Example 158, 3-(1-(3-fluorobenzyl)-1H-pyrazol-4-yl)-5-(6-(4-(methylsulfonyl)piperazin-1-yl)pyridin-3-yl)-1H-pyrrolo[2,3-b]pyridine]
50 to 250 nM	20%	84%	O=C(CC1CC1)N1CCN(c2ccc(-c3cnc4[nH]cc(-c5cnn(Cc6cccc(F)c6)c5)c4c3)cn2)CC1 [Example 160, 2-cyclopropyl-1-(4-(5-(3-(1-(3-fluorobenzyl)-1H-pyrazol-4-yl)-1H-pyrrolo[2,3-b]pyridin-5-yl)pyridin-2-yl)piperazin-1-yl)ethanone]
< 50 nM	86%	97%	Cc1nn(Cc2cccc(F)c2)c(C)c1-c1c[nH]c2ncc(-c3ccc(N4CCN(C[C@H](C)O)CC4)nc3)cc12 [Example 161, (2S)-1-(4-(5-(3-(1-(3-fluorobenzyl)-3,5-dimethyl-1H-pyrazol-4-yl)-1H-pyrrolo[2,3-b]pyridin-5-yl)pyridin-2-yl)piperazin-1-yl)propan-2-ol]
< 50 nM	75%	96%	Cc1c(-c2c[nH]c3ncc(-c4ccc(N5CCN(C[C@H](C)O)CC5)nc4)cc23)cnn1Cc1cccc(F)c1 [Example 162, (S)-1-(4-(5-(3-(1-(3-fluorobenzyl)-5-methyl-1H-pyrazol-4-yl)-1H-pyrrolo[2,3-b]pyridin-5-yl)pyridin-2-yl)piperazin-1-yl)propan-2-ol]
< 50 nM	88%	98%	C[C@H](O)CN1CCN(c2cnc(-c3cnc4[nH]cc(-c5cnn(Cc6cccc(F)c6)c5)c4c3)cn2)CC1 [Example 163, (S)-1-(4-(5-(3-(1-(3-fluorobenzyl)-1H-pyrazol-4-yl)-1H-pyrrolo[2,3-b]pyridin-5-yl)pyrazin-2-yl)piperazin-1-yl)propan-2-ol]
< 50 nM	96%	99%	C[C@H](O)CN1CCCN(c2ccc(-c3cnc4[nH]cc(-c5cnn(Cc6cccc(F)c6)c5)c4c3)cc2)CC1 [Example 164, (S)-1-(4-(4-(3-(1-(3-fluorobenzyl)-1H-pyrazol-4-yl)-1H-pyrrolo[2,3-b]pyridin-5-yl)phenyl)-1,4-diazepan-1-yl)propan-2-ol]
50 to 250 nM	69%	97%	Fc1cc(-c2cnc3[nH]cc(-c4cnn(CCc5ccccc5)c4)c3c2)ccc1C1CCNCC1 [Example 167, 5-(3-fluoro-4-(piperidin-4-yl)phenyl)-3-(1-phenethyl-1H-pyrazol-4-yl)-1H-pyrrolo[2,3-b]pyridine]
< 50 nM	99%	100%	Fc1cc(F)cc(Cn2cc(-c3c[nH]c4ncc(-c5ccc(C6CCNCC6)c(F)c5)cc34)cn2)c1 [Example 169, 3-(1-(3,5-difluorobenzyl)-1H-pyrazol-4-yl)-5-(3-fluoro-4-(piperidin-4-yl)phenyl)-1H-pyrrolo[2,3-b]pyridine]
< 50 nM	98%	100%	CN1CCC(c2ccc(-c3cnc4[nH]cc(-c5cnn(Cc6cccc(F)c6)c5)c4c3)cc2F)CC1 [Example 170, 5-(3-fluoro-4-(1-methylpiperidin-4-yl)phenyl)-3-(1-(3-fluorobenzyl)-1H-pyrazol-4-yl)-1H-pyrrolo[2,3-b]pyridine]

The remaining lines, values behind:

SMILES	IC50	inhibition at 0.1 µM	inhibition at 1 µM
C[C@H](O)CN1CCN(c2ccc(-c3cnc4[nH]cc(-c5cnn(Cc6cccc(Cl)c6)c5)c4c3)cn2)CC1 [Example 153, (S)-1-(4-(5-(3-(1-(3-chlorobenzyl)-1H-pyrazol-4-yl)-1H-pyrrolo[2,3-b]pyridin-5-yl)pyridin-2-yl)piperazin-1-yl)propan-2-ol]	< 50 nM	93%	100%
O=C(CO)N1CCN(c2ccc(-c3cnc4[nH]cc(-c5cnn(Cc6cccc(F)c6)c5)c4c3)cn2)CC1 [Example 154, 1-(4-(5-(3-(1-(3-fluorobenzyl)-1H-pyrazol-4-yl)-1H-pyrrolo[2,3-b]pyridin-5-yl)pyridin-2-yl)piperazin-1-yl)-2-hydroxyethanone]	< 50 nM	99%	100%
OC1CCN(c2ccc(-c3cnc4[nH]cc(-c5cnn(Cc6cccc(F)c6)c5)c4c3)cn2)CC1 [Example 155, 1-(5-(3-(1-(3-fluorobenzyl)-1H-pyrazol-4-yl)-1H-pyrrolo[2,3-b]pyridin-5-yl)pyridin-2-yl)piperidin-4-ol]	< 50 nM	86%	97%
CCS(=O)(=O)N1CCN(c2ccc(-c3cnc4[nH]cc(-c5cnn(Cc6cccc(F)c6)c5)c4c3)cn2)CC1 [Example 156, 5-(6-(4-(ethylsulfonyl)piperazin-1-yl)pyridin-3-yl)-3-(1-(3-fluorobenzyl)-1H-pyrazol-4-yl)-1H-pyrrolo[2,3-b]pyridine]	< 50 nM	69%	91%
O=C(C1CC1)N1CCN(c2ccc(-c3cnc4[nH]cc(-c5cnn(Cc6cccc(F)c6)c5)c4c3)cn2)CC1 [Example 157, Cyclopropyl(4-(5-(3-(1-(3-fluorobenzyl)-1H-pyrazol-4-yl)-1H-pyrrolo[2,3-b]pyridin-5-yl)pyridin-2-yl)piperazin-1-yl)methanone]	< 50 nM	77%	93%
Fc1cccc(Cn2cc(-c3c[nH]c4ncc(-c5ccc(C6CCNCC6)nc5)cc34)cn2)c1 [Example 159, 3-(1-(3-fluorobenzyl)-1H-pyrazol-4-yl)-5-(6-(piperidin-4-yl)pyridin-3-yl)-1H-pyrrolo[2,3-b]pyridine]	< 50 nM	91%	100%
Cc1c(-c2c[nH]c3ncc(-c4ccc(C5CCNCC5)c(F)c4)cc23)cnn1Cc1cccc(F)c1 [Example 165, 5-(3-fluoro-4-(piperidin-4-yl)phenyl)-3-(1-(3-fluorobenzyl)-5-methyl-1H-pyrazol-4-yl)-1H-pyrrolo[2,3-b]pyridine]	< 50 nM	99%	100%
Cc1nn(Cc2cccc(F)c2)cc1-c1c[nH]c2ncc(-c3ccc(C4CCNCC4)c(F)c3)cc12 [Example 166, 5-(3-fluoro-4-(piperidin-4-yl)phenyl)-3-(1-(3-fluorobenzyl)-3-methyl-1H-pyrazol-4-yl)-1H-pyrrolo[2,3-b]pyridine]	< 50 nM	90%	98%
Fc1cc(-c2cnc3[nH]cc(-c4ccn(CCc5ccccc5)n4)c3c2)ccc1C1CCNCC1 [Example 168, 5-(3-fluoro-4-(piperidin-4-yl)phenyl)-3-(1-phenethyl-1H-pyrazol-3-yl)-1H-pyrrolo[2,3-b]pyridine]	> 250 nM	23%	71%

Source: patent publication US9353107B2 (Aurigene Discovery Technologies Limited, priority 2012, dated 2016)
